4 molecules from patent publication US20240002952A1, “METHOD FOR IN VITRO DIAGNOSIS OF MUCOSITIS IN CANCER PATIENTS UNDERGOING ANTITUMOR THERAPY” (ISTITUTI FISIOTERAPICI OSPITALIERI, priority 2020, published 2024) can be followed below.

The test system of data set [1] is Primary epidermal keratinocytes (HEKa).
Data set [2] concerns Primary gingival keratinocytes.

Turning to `O=c1[nH]cc(F)c(=O)[nH]1` [5-FLUOROURACILE, 5-fluorouracile], the “CC50 Value Primary epidermal keratinocytes (HEKa)” value in data set [1] is given as “Not calculable”. Besides, in data set [2], the “CC50 Value Primary gingival keratinocytes” value is given as “Not calculable”.

As for `Nc1ncn([C@@H]2O[C@H](CO)[C@@H](O)[C@H]2O)c(=O)n1` [AZACYTIDINE, azacytidine], the values for the CC50 in data set [1] and in data set [2] were 51.2 µM and 1.8 µM, respectively.

Take `CCCCCOC(=O)Nc1nc(=O)n([C@@H]2O[C@H](C)[C@@H](O)[C@H]2O)cc1F` [CAPECITABIN, capecitabin]: the “CC50 Value Primary epidermal keratinocytes (HEKa)” value in data set [1] is recorded as “Not calculable”. In data set [2], this molecule gave a CC50 of 103 µM.

Consider `O=C1[O][Pt]2([NH][C@@H]3CCCC[C@H]3[NH]2)[O]C1=O` [OXALIPLATIN, oxaliplatin], for which the CC50 in data set [1] was determined as 32.3 µM; in data set [2], 46 µM.
